Experiments:
Caco-2 cells [1] = test: MTT cytotoxicity assay on Caco-2 cells; format: cell-based, Human; details: Homo sapiens, 24 h, mean ± SD, n = 4, read-out: Inhibition Rate %
Procedure: Human intestinal Caco-2 cells (ATCC, Rockville, MD, USA) were incubated at 37 °C in a humidified atmosphere of 5% CO2 in air. The cells were cultured in Dulbecco’s […] medium (DMEM) with 10% heat-inactivated fetal bovine serum, 1% non-essential amino acids, 1% L-glutamine, 1% penicillin/streptomycin (Gibco Life Technologies, Grand Island, NY, USA). The cells were sub-cultured at confluence by 0.05% trypsin-0.5 mM EDTA treatment before they were applied in the experiment.
A MTT test was conducted to determine the possible toxicity of UA and its derivatives to Caco-2 cells. Briefly, cells were seeded at a density of 1 × 10^4 cells/mL in a 96-well plate and incubated for 24 h. The next day, cells were incubated with vehicle (0.1% DMSO) and compounds at 100, 50, 25, 12.5 μmol/L for 24 h, and then 5 g/L MTT solution (20 μL) was added for 4 h. Absorbance at 570 nm was measured using a Multimodel Plate Reader (Infinite 200, Tecan, Mannedorf, Switzerland).

SGLT-1 = test: Western blot of SGLT-1 protein expression in Caco-2 cells; format: cell-based, Human; details: 100 μM, 6 h
Procedure: Caco-2 cells were cultured on 6-well plates at a density of 1 × 10^6 cells/well for 13 days. The cells were placed in serum-free medium for 24 h prior to the treatment. Then UA and its derivatives (100 μM) were added, after 6 h incubation, the cells were immediately washed three times with ice-cold PBS and lysed in 200 μL lysis buffer. Cells were allowed to lyse on ice, and then scraped, vortexed, sonicated and stored at −80 °C for further analysis. Protein concentrations were determined as described and cell lysate was subjected to western blot analysis. Briefly, proteins with same amount were denatured in sample buffer, separated on 8% SDS-PAGE gel, and transferred onto a polyvinylidene diflouride membrane. […] Membranes were then incubated overnight at 4 °C in blocking buffer with antibodies for GLUT-2, SGLT-1 and β-actin (EMD, Millipore, Billerica, MA, USA). Membranes were washed with TBST and incubated 1 h with appropriate secondary antibodies. Revelation was performed by using the enhanced chemiluminescence reagent and blue-light sensitive film. Densitometric analysis of films was performed with a Hewlett-Packard scanner equipped with a transparent adaptor and UN-SCAN-IT software.

[2] = system: STZ-induced diabetic rats; test: Oxidative stress markers (GSH, SOD, MDA) in liver and kidney of STZ-induced diabetic rats; format: in vivo, rat; details: 4 weeks
Procedure: (§1) Diabetes was induced by a single intraperitoneal injection of streptozotocin (Sigma-Aldrich, St. Louis, MO, USA) at a dose of 65 mg/kg body weight. STZ was dissolved in 0.1 M cold citrate buffer, pH 4.5. Control group were injected with citrate buffer alone. After 7 days for the development of diabetes, plasma glucose levels were determined of each rat. Rats with fasting blood glucose (FBG) range of above 16.7 mmol/L were considered as DM rats and were used for further study.
(§2) According to the body weight and plasma glucose levels the rats were divided randomly into seven groups with six rats each and treated as follows: • Group I: Normal rats treated with 0.5% CMC-Na (2 mL/200 g body weight). • Group II: Diabetic rats treated with 0.5% CMC-Na. • Group III: Diabetic rats treated with 10 mg/kg of glibenclamide. • Group IV: Diabetic rats treated with 100 mg/kg of compound 1 (UA). • Group V: Diabetic rats treated with 100 mg/kg of compound 10. • Group VI: Diabetic rats treated with 100 mg/kg of compound 11. • Group VII: Diabetic rats treated with 100 mg/kg of compound 12.
(§3) The treatment was continued daily for 28 days. Blood glucose levels and body weight were measured every week to ascertain the status of diabetes. After 4 weeks of treatment, the animals were fasted for 12 h and sacrificed by cervical dislocation under mild anaesthetization, blood was collected into heparinized tubes and centrifuged at 2,000 rpm for 10 min. Livers and kidneys were removed, washed and homogenized in ice-cold normal saline. This homogenates were centrifuged at 3,000 rpm for 10 min at 4 °C, and the supernatants were collected for the estimate of antioxidant markers.
The tissue homogenates of liver and kidney were used for the estimate of antioxidant markers. Glutathione (GSH) level was measured with 5, 5'-dithiobis-(2-nitrobenzoic acid) (DTNB) as described by Sedlak and Lindsay. Superoxide dismutase (SOD) activity was assessed according to the method of Sinha. Malondialdehyde (MDA) activity was estimated with the thiobarbituric acid method.

[3] = system: STZ-induced diabetic rats; test: Fasting blood glucose in STZ-induced diabetic rats, 4 weeks treatment; format: in vivo, rat; details: for Fasting Blood Glucose Level, Week 0: Week 0 (before treatment); for Fasting Blood Glucose Level, Week 0 / Fasting Blood Glucose Level, Week 1 / Fasting Blood Glucose Level, Week 2 / Fasting Blood Glucose Level, Week 3 / Fasting Blood Glucose Level, Week 4: compounds 100 mg/kg, n = 6; for Fasting Blood Glucose Level, Week 1 / Fasting Blood Glucose Level, Week 2 / Fasting Blood Glucose Level, Week 3 / Fasting Blood Glucose Level, Week 4: glibenclamide 10 mg/kg daily
Procedure: Adult male albino rats of Sprague-Dawley rats (180–220 g) were obtained from the Guangdong Medical Lab Animal Center, and maintained under standard laboratory conditions in a temperature (25–30 °C) and light-controlled (12-h light/dark cycle) room with 35%–60% humidity. The animals were acclimatized for 10 days before the experiments and provided with rodent chow and water ad libitum. The investigation was conducted in accordance with the Guide for the Care and Use of Laboratory Animals and approved by the institutional Animal Ethics Committee.
as §1, §2, §3
(§4) Fasting blood glucose levels were estimated on days 0, 7, 14, 28 with the single touch glucometer (Life Scan, Johnson & Johnson Company, New Brunswick, NJ, USA). Serum insulin level was measured by use of a commercial immunoassay kit by enzyme linked immunosorbent assay (Uscn. Life Science Inc., Wuhan, China). Serum total protein, albumin, triglycerides (TG), total cholesterol (TC), high-density lipoprotein cholesterol (HDL-C), and low-density lipoprotein cholesterol (LDL-C) were measured with an automatic biochemical analyzer (Sinnowa D240, Nanjing, China).

[4] = system: STZ-induced diabetic rats; test: Body weight and daily food intake of STZ-induced diabetic rats; format: in vivo, rat; details: compounds 100 mg/kg, glibenclamide 10 mg/kg, oral
Procedure: as §1, §2, §3

[5] = system: STZ-induced diabetic rats; test: Serum biochemical parameters (insulin, total protein, albumin) in STZ-induced diabetic rats; format: in vivo, rat; details: 4 weeks, compounds 100 mg/kg, glibenclamide 10 mg/kg
Procedure: as §1, §2, §3, §4

[6] = system: STZ-induced diabetic rats; test: Serum lipid profile (TG, TC, LDL-C, HDL-C) in STZ-induced diabetic rats; format: in vivo, rat; details: 4 weeks, compounds 100 mg/kg, glibenclamide 10 mg/kg
Procedure: as §1, §2, §3, §4

Caco-2 cells [7] = test: 2-NBDG glucose uptake by Caco-2 cell monolayers, Na+-independent (sodium free buffer); format: cell-based, Human; details: 100 μM compound, Na+-independent (KCl/K2HPO4 buffer)
Procedure: Caco-2 cells, which were derived from human colon adenocarcinoma, were selected for intestinal absorption studies because these cells express the morphological characteristics and most of the functional properties of differentiated small-intestinal enterocytes. Caco-2 cells were seeded on 24-well plates at the density of 2 × 10^5 cells/well. The medium was changed every 1–2 days, and the culture was carried out for 13 days. Then Caco-2 cells were placed in serum-free media for 24 h and then they were washed twice with Hanks’ balanced salt solution (HBSS, pH 7.5, 140 mM NaCl, 5 mM KCl, 1.2 mM Na2HPO4, 2 mM CaCl2, 1.2 mM MgSO4, 20 mM HEPES, 0.2% bovine serum albumin) before the uptake studies. When a sodium free buffer was required, NaCl and Na2HPO4 were replaced with equal amounts of KCl and K2HPO4, respectively. After washing, the cells were incubated for 15 min at room temperature in HBSS before the commencement of this experiment. The uptake studies were initiated by adding HBSS containing either control or test solution (100 μM) and […] (100 μM) for 30 min at 37 °C. Glucose uptake was stopped by adding twofold volume of ice-cold PBS and the wells were washed with ice-cold PBS three times. Fluorescent intensity was measured by a Multimodel Plate Reader (Tecan Infinity 200) with the 485 nmex and 535 nmemiss filter set before and after adding 2-NBDG. Then the cells were lysed in 200 μL lysis buffer (10 mM Tris-HCl pH = 7.4, 150 mM NaCl, 1% Triton-x-100, 1 mM EDTA, 0.1% SDS) and supplemented immediately before they were processed with 10 μg/mL PMSF. Cells were allowed to lyse on ice, and then vortexed and sonicated. The lysate was used for protein determination, protein concentrations were determined as described by BCA kit (Boster, Wuhan, China) with bovine serum albumin as standard.

[8] = STZ diabetic rats, glibenclamide 10 mg/kg

Compound: CC(=O)O[C@H]1CC[C@@]2(C)C(CC[C@]3(C)C2CC=C2C4[C@@H](C)[C@H](C)CC[C@]4(C(=O)Nc4ccccc4Br)CC[C@]23C)C1(C)C (stereo partly drawn) [Compound 8]
- inhibition at 100 µM (Caco-2 cells [1]): 9.86 ± 2.68%

Compound: CC(=O)O[C@H]1CC[C@@]2(C)C(CC[C@]3(C)C2CC=C2C4[C@@H](C)[C@H](C)CC[C@]4(C(=O)O)CC[C@]23C)C1(C)C (stereo partly drawn) [Compound 9]
- inhibition at 100 µM (Caco-2 cells [1]): 4.4 ± 3.09%

Compound: CC(C)C(=O)O[C@H]1CC[C@@]2(C)C(CC[C@]3(C)C2CC=C2C4[C@@H](C)[C@H](C)CC[C@]4(C(=O)O)CC[C@]23C)C1(C)C (stereo partly drawn) [Compound 12]
- effect on protein expression of SGLT-1 (SGLT-1): significantly reduce
- GSH level in kidney ([2]; kidney of STZ diabetic rats): great effect
- effect on lowering fasting blood glucose levels ([3]; STZ diabetic rats, 100 mg/kg, 4 weeks): no significant effect
- Fasting Blood Glucose Level, Week 0 [3, 8]: 325.80 ± 14.58 mg/dL
- Fasting Blood Glucose Level, Week 1 ([3]; STZ diabetic rats): 392.40 ± 36.54 mg/dL
- Fasting Blood Glucose Level, Week 2 ([3]; STZ diabetic rats): 379.80 ± 30.60 mg/dL
- Fasting Blood Glucose Level, Week 3 ([3]; STZ diabetic rats): 408.60 ± 20.52 mg/dL
- Fasting Blood Glucose Level, Week 4 ([3]; STZ diabetic rats): 432.00 ± 28.26 mg/dL
- daily food intake vs untreated diabetic rats [4]: no obvious decrease
- serum albumin level vs diabetic control [5]: no appreciable improvement
- serum insulin level vs diabetic control [5]: non-significant effect
- serum total protein level vs diabetic control [5]: no appreciable improvement
- inhibition at 100 µM (Caco-2 cells [1]): 7.67 ± 5.36%

Compound: COc1ccc(Cl)cc1C(=O)NCCc1ccc(S(=O)(=O)NC(=O)NC2CCCCC2)cc1 [Glibenclamide, reference compound]
- SOD level in the liver and kidney ([2]; liver and kidney of STZ diabetic rats): great improvement
- GSH level in liver ([2]; liver of STZ diabetic rats): significant effects
- MDA level in the liver ([2]; liver of STZ diabetic rats, daily administration): obviously down-regulated
- Fasting Blood Glucose Level, Week 0 [3, 8]: 338.40 ± 16.38 mg/dL
- Fasting Blood Glucose Level, Week 1 ([3]; STZ diabetic rats): 271.80 ± 18.36 mg/dL
- Fasting Blood Glucose Level, Week 2 ([3]; STZ diabetic rats): 183.60 ± 11.70 mg/dL
- Fasting Blood Glucose Level, Week 3 ([3]; STZ diabetic rats): 216.00 ± 9.72 mg/dL
- Fasting Blood Glucose Level, Week 4 ([3]; STZ diabetic rats): 203.40 ± 13.50 mg/dL
- decrease in blood glucose levels as compared with diabetic control ([3]; end of the 4 week treatment, compound 10 100 mg/kg, glibenclamide 10 mg/kg): 54.4%
- daily food intake vs untreated diabetic rats [4]: reduce daily food intake significantly
- serum albumin level vs diabetic control [5]: increased significantly
- serum insulin level vs diabetic control [5]: increased significantly
- serum total protein level vs diabetic control [5]: increased significantly
- serum TC level vs diabetic control [6]: significantly decreased
- serum TG level vs diabetic control [6]: significantly decreased

Compound: O=C(CCc1ccc(O)cc1)c1c(O)cc(O)cc1O [Phloretin, reference compound]
- inhibition at 100 µM (Caco-2 cells [1]): 4.7 ± 2.59%

Compound: O=C(CCc1ccc(O)cc1)c1c(O)cc(O)cc1O[C@@H]1O[C@H](CO)[C@@H](O)[C@H](O)[C@H]1O [Phlorizin, reference compound]
- glucose uptake, % of the control value (Na+-independent) (Caco-2 cells [7]): 75 % of the control value
- inhibition at 100 µM (Caco-2 cells [1]): 7.7 ± 3.91%
